These results are taken from US20250042909A1, “POLYMORPH FORMS OF A 5H-PYRROLO[2,3-b]PYRAZINE DERIVATIVE, METHODS OF PREPARATION, AND USES THEREFORE” (BeiGene, Ltd., priority 2022, published 2025).

The nature of series [1]: Solid-state chemical and physical stability under stress and storage conditions. It counts as physicochemical. Conditions: for Chemical and physical stability: 25° C./92% RH open, 40° C./75% RH open, 60° C. tight container, over 1 week. As to the method: Solid form stability of freeform Type A was investigated in process solvents EtOH/H2O and MeOH/H2O. […] Purity change in all the rest conditions (40° C./75% RH/open for 2 weeks, 60° C./sealed for 10 days, RT/92.5% RH/open for 10 days, 25° C./60% RH/open for 8 weeks and UV (290 wμ/cm2) for 3 days) was less than 0.4 area %. […]

A short description of series [2]: Pharmacokinetic studies in mice. The class given is in vivo, male CD-1 mice. The note with it: for AUC(0-t): male, CD-1, mouse, plasma, read-out: AUC0-24h. As to the method: Compound A free form amorphous (115.7 mg) was prepared by lyophilizing a suspension of compound A free form in water with a minimum amount of acetonitrile.
(§1) Pharmacokinetic studies of Compound A were conducted in male CD-1 mice (Vital River, 8 weeks, 3 animals per dosing route) following Institutional Animal Care and Use Committee guidelines. Intravenous administration was formulated as 0.20 mg/mL solution in N,N-dimethylacetamide:30% solutol HS-15(w/v): saline=20:20:60 (V:V:V). Oral administration was formulated as 1.0 mg/mL suspension in 0.500 methyl cellulose. Blood samples were collected over a 24-h period post-dose. Plasma was isolated and processed with the below protocol: To an aliquot of 10 μL plasma was added 200 μL ACN containing 5 ng/mL terfenadine as internal standard. The mixture was vortexed for 1 m and centrifuged at 4000 rpm for 10 min. An aliquot of 50 μL supernatant was diluted with 150 μL acetonitrile/water. The concentration of Compound A was determined by LC-MS-MS. Non-compartmental pharmacokinetic analysis was performed on the concentration-time data.

Series [3] can be described thus: Pharmacokinetic studies in rats. The class given is in vivo, male SD rats. Conditions: for AUC(0-t): read-out: AUC0-24h. How it is done:
as §1, with “male SD rats” for “male CD-1 mice”, “as 1.0” for “as 0.20”, “solutol HS-15(w/v):saline=20:20:60” for “solutol HS-15(w/v): saline=20:20:60”, “in 0.5%” for “in 0.500”, “1 min” for “1 m”

A short description of series [4]: Dynamic vapor sorption (DVS) hygroscopicity test. The note with it: for Hygroscopicity: DVS at 25° C. The class given is physicochemical. How it is done: Dynamic vapor sorption (DVS) analysis was conducted using SMS DVS Intrinsic using one of below methods:
Sample was weighted to the microbalance. The relative humidity was set to 0% with N2 flow of 200 sccm. The equilibrium was assumed when the weight change of the sample was <0.001 wt % in 10 min or by a maximum equilibration time of 180 minutes. […] Between two equilibrium steps, dm/dt is 0.002%/min. At each equilibrium step, the equilibrium was assumed when the weight change of the sample was <0.001 wt % in 10 min or by a maximum equilibration time of 180 minutes.
Sample was weighted to the microbalance. The relative humidity was set to the closes decile of ambient humidity with N2 flow of 200 sccm. The equilibrium was assumed when the weight change of the sample was <0.001 wt % in 10 min or by a maximum equilibration time of 180 minutes. […] Between two equilibrium steps, dm/dt is 0.002%/min. At each equilibrium step, the equilibrium was assumed when the weight change of the sample was <0.001 wt % in 10 min or by a maximum equilibration time of 180 minutes.
Sample was weighted to the microbalance. The relative humidity was set to 40% with N2 flow of 200 sccm. The equilibrium was assumed when the weight change of the sample was <0.001 wt % in 60 min or by a maximum equilibration time of 360 minutes. […] Between two equilibrium steps, dm/dt is 0.002%/min. At each equilibrium step, the equilibrium was assumed when the weight change of the sample was <0.001 wt % in 60 min or by a maximum equilibration time of 360 minutes.

Series [5] is described as follows: Solid form stability in process solvents. The class given is physicochemical. Conditions: MeOH at 50° C. How it is done: Solid form stability of freeform Type A was investigated in process solvents EtOH/H2O and MeOH/H2O. […] Purity change in all the rest conditions (40° C./75% RH/open for 2 weeks, 60° C./sealed for 10 days, RT/92.5% RH/open for 10 days, 25° C./60% RH/open for 8 weeks and UV (290 wμ/cm2) for 3 days) was less than 0.4 area %.

Setting [6] is: PO Dose 10 mpk calculated as free form, 10 mg/kg.
[7] abbreviates: male, SD, rat, plasma, po, 10 mg/kg, PO Dose 10 mpk calculated as free form.

Where a name gives a salt, the structure may show the parent alone.

As for `Cc1cc(-c2c[nH]c3ncc(-c4cc(C)c5c(c4)CCN(C)C5)nc23)ccc1C(=O)N(C)C` [Citrate Type B, 4-[2-(2,8-dimethyl-1,2,3,4-tetrahydroisoquinolin-6-yl)-5H-pyrrolo[2,3-b]pyrazin-7-yl]-N,N,2-trimethylbenzamide], the “Form conversion on storage” value in series [1] (ambient and open conditions (about 25° C. and about 80% RH) over 1 week) is on record as “converted to Type A”.
Usually Cmax stands for the highest concentration seen after dosing. With `Cc1cc(-c2c[nH]c3ncc(-c4cc(C)c5c(c4)CCN(C)C5)nc23)ccc1C(=O)N(C)C` [Compound A citrate type A, 4-[2-(2,8-dimethyl-1,2,3,4-tetrahydroisoquinolin-6-yl)-5H-pyrrolo[2,3-b]pyrazin-7-yl]-N,N,2-trimethylbenzamide], in series [2] (setting [6]), the AUC0-24h was 2990 ng·h/mL, the Cmax was 640 ng/mL, the F % was 86.9% and the t1/2 was 7.95 h. In series [2] (setting [6]), the tmax is listed as 1.50 h. In addition, in series [3] (setting [6]), the AUC0-24h was 1603 ng·h/mL, the Cmax is 445 ng/mL, the F % is 24.4% and the tmax is listed as 2.67 h. In addition, the Long-term stability result in series [1] (3-month experiment) is “excellent long-term stability”. Also, the “Chemical and physical stability” value in series [1] was “chemically and physically stable”. Besides, the “Form change after the DVS test” value in series [4] was “No form change”. In addition, the Hygroscopicity entry in series [4] (listed as citrate salt type A) was “slightly hygroscopic”. Further, the “Water absorbed (DVS)” value in series [4] (from 0% RH to 95% RH at 25° C.) is reported as “about 0.7%”.
As usually defined, the half-life is how long it takes for the measured level to halve. One may read the bioavailability as the share of a dose that reaches the circulation, judged against a reference dose that is usually intravenous. Regarding `Cc1cc(-c2c[nH]c3ncc(-c4cc(C)c5c(c4)CCN(C)C5)nc23)ccc1C(=O)N(C)C` [Compound A free form amorphous, 4-[2-(2,8-dimethyl-1,2,3,4-tetrahydroisoquinolin-6-yl)-5H-pyrrolo[2,3-b]pyrazin-7-yl]-N,N,2-trimethylbenzamide], the maximum concentration (Cmax) in series [2] (setting [6]) was 177 ng/mL; in series [3] (male, SD, rat, plasma, po, 10 mg/kg, PO Dose 10 mpk calculated as free form, read-out: Cmax) it was 235 ng/mL. For the same compound, the F % in series [2] (setting [6]) is listed as 55.2%. Moreover, in series [2] (setting [6]), the t1/2 is recorded as 3.63 h. Besides, the tmax in series [2] (setting [6]) is 3.50 h; in series [3] (male, SD, rat, plasma, po, 10 mg/kg, PO Dose 10 mpk calculated as free form, read-out: tmax), 2 h. Also, the AUC(0-t) in series [2] (iv, 1 mg/kg, IV Dose 1 mpk calculated as free form) was 344 ng·h/mL; in series [2] (po, 10 mg/kg, PO Dose 10 mpk calculated as free form), 1900 ng·h/mL; in series [3] (male, SD, rat, plasma, iv, 1 mg/kg, IV Dose 1 mpk calculated as free form) it was 656 ng·h/mL; in series [3] (setting [7]), 1120 ng·h/mL. In addition, the half-life in series [3] (male, SD, rat, plasma, 10 mg/kg, PO Dose 10 mpk calculated as free form) is 4.05 h. For the same compound, the bioavailability in series [3] (setting [7]) is 17.2%.
As to `Cc1cc(-c2c[nH]c3ncc(-c4cc(C)c5c(c4)CCN(C)C5)nc23)ccc1C(=O)N(C)C` [L-malate salt Type A, 4-[2-(2,8-dimethyl-1,2,3,4-tetrahydroisoquinolin-6-yl)-5H-pyrrolo[2,3-b]pyrazin-7-yl]-N,N,2-trimethylbenzamide], in series [1], the “Chemical and physical stability” value was “chemically and physically stable”. Further, in series [4], the “Form change after the DVS test” value is reported as “No form change”. The Hygroscopicity entry in series [4] (listed as L-malate salt Pattern A) was “hygroscopic”. In addition, the “Water absorbed (DVS)” value in series [4] (from 40% RH to 95% RH at 25° C.) is reported as “about 7.9%”.
For the compound `Cc1cc(-c2c[nH]c3ncc(-c4cc(C)c5c(c4)CCN(C)C5)nc23)ccc1C(=O)N(C)C` [freeform Type A, 4-[2-(2,8-dimethyl-1,2,3,4-tetrahydroisoquinolin-6-yl)-5H-pyrrolo[2,3-b]pyrazin-7-yl]-N,N,2-trimethylbenzamide], the “HPLC area purity change” value in series [1] (40° C./75% RH/open 2 weeks, 60° C./sealed 10 days, RT/92.5% RH/open 10 days, 25° C./60% RH/open 8 weeks, UV 3 days) is recorded as “less than 0.4 area %”. In addition, the “HPLC area purity decrease” value in series [1] (Vis (10000 Lux) for 5 days) is given as approximately 1.2 area %. Further, in series [1] (under the laboratory conditions), the “Form change (physical stability)” value is on record as “No form change”. For the same compound, the “Form change in process solvent” value in series [5] is “No form change”.
